In patent US20160303095A1, “METHODS OF TREATING HEPATITIS B VIRUS” (Gilead Sciences, Inc., priority 2015, published 2016) one finds IC50 and EC50 data, which are given here for four molecules.

One experiment deals with T1, KDM6B (Homo sapiens, UniProt O15054).
T1 construct: host or cells: Sf9 cells
Put plainly: Biochemical KDM inhibition assay (LANCE), KDM6B. To be noted: read-out: Biochemical IC50 KDM 6B. The procedure: Representative compounds were characterized for their inhibition of KDM5 using biotinylated histone substrates. Inhibition was measured in vitro (CEREP Poitier, Le Bois l'Evêque, France) following experimental conditions described in Table 2. Briefly, the test compound, reference compound or water (control) was mixed with about 2-20 ng of recombinant, Human enzymes expressed in Sf9 cells in a buffer containing 45 mM Hepes/Tris (pH 7), 5 μM FAS, 100 μM ascorbic acid, 10 μM 2-oxoglutarate, 0.01% Tween 20 and 0.01% BSA. Thereafter, the reaction was initiated by adding the biotin-labeled substrate, and the mixture was incubated for 10-30 min at room temperature. For basal control measurements, the enzyme was omitted from the reaction mixture. Following incubation the reaction was stopped by adding 1 mM EDTA. After 5 min, the anti-methyl histone antibody labeled with europium chelate and the Ulight streptavidine (Perkin Elmer Waltham, Mass.) were added. After 60 min more, the fluorescence transfer was measured at λex=320 nm and λem=620 and λem=665 nm using a microplate reader (Envision, Perkin Elmer) (LANCE). The enzyme activity was determined by dividing the signal measured at λem=665 nm by that measured at 620 nm (ratio).
Background: TR-FRET usually uses a lanthanide donor and a delayed reading to cut background.

For another experiment, the system named is HBV. Put plainly: PHH screening protocol: HBsAg and HBeAg levels by MSD ELISA. The settings on record: Hepatitis B virus. Type of experiment: cell-based, Hepatitis B Virus. The procedure:
HBV antiviral activity was assessed in primary human hepatocytes (PHH) in a 96-well format. PHH were (Life Technologies, Chicago, 11) plated on collagen coated tissue culture plates using Plating Media containing William's Medium E supplemented with 1% Penicillin/Streptomycin, 4 μg/mL human recombinant insulin, 2 mM glutamax, 15 mM Hepes, 1 μM dexamethasone and 5% fetal bovine serum (Life Technologies, Cat#A12176-01 Life Technologies, Chicago, Ill.). After a 4-hour incubation at 37° C., cells were switched to Maintenance Media (Cat#CM4000-A15564 Life Technologies, Chicago, Ill.) containing William's Medium E supplemented with 0.5% Penicillin/Streptomycin, 6.25 μg/mL human recombinant insulin, 6.25 μg/mL human transferrin, 6.25 ng/mL selenous acid, 1.25 mg/mL bovine serum albumin, 5.35 μg/mL linoleic acid, 2 mM glutamax, 15 mM Hepes, 0.1 μM dexamethasone, 2% fetal bovine serum, and 2% DMSO (Cat#D2650 Sigma, St. Louis, Mo.). On the next day, cells were infected with approximately 500 genome equivalent of selected HBV clinical isolates (21P (GTA), 32P (GTA), 91P (GTA), AD38 (GTD), 65P (GTD) or 30P (GTE); ProteoGenex, Culver City, Calif.) per cell in Maintenance Media supplemented with 4% PEG 8000 (Cat#V3011 Promega, Madison, Wis.). After 24 hour incubation cells were washed three times with William's Medium E and fed with fresh Maintenance Media. Small molecule inhibitors targeting KDMs were serially diluted in Maintenance Media and added to cells at 3 days post infection (p.i.). Media with compounds was replenished every 2-3 days. Media collected on various days was used for determination of HBsAg and HBeAg levels by MSD ELISA, and HBV RNA by qPCR. All data were converted into percentages of the untreated control and non-linear regression was performed to calculate EC50 or CC50 values.

[1] abbreviates: read-out: HBeAg EC50, HBV-infected PHH.
The mark [2] stands for this setting: read-out: HBsAg EC50, HBV-infected PHH.

SMILES strings stand for the structures. Like-named read-outs stand apart in the source and are kept apart here.

T1 sequence (O15054 whole entry): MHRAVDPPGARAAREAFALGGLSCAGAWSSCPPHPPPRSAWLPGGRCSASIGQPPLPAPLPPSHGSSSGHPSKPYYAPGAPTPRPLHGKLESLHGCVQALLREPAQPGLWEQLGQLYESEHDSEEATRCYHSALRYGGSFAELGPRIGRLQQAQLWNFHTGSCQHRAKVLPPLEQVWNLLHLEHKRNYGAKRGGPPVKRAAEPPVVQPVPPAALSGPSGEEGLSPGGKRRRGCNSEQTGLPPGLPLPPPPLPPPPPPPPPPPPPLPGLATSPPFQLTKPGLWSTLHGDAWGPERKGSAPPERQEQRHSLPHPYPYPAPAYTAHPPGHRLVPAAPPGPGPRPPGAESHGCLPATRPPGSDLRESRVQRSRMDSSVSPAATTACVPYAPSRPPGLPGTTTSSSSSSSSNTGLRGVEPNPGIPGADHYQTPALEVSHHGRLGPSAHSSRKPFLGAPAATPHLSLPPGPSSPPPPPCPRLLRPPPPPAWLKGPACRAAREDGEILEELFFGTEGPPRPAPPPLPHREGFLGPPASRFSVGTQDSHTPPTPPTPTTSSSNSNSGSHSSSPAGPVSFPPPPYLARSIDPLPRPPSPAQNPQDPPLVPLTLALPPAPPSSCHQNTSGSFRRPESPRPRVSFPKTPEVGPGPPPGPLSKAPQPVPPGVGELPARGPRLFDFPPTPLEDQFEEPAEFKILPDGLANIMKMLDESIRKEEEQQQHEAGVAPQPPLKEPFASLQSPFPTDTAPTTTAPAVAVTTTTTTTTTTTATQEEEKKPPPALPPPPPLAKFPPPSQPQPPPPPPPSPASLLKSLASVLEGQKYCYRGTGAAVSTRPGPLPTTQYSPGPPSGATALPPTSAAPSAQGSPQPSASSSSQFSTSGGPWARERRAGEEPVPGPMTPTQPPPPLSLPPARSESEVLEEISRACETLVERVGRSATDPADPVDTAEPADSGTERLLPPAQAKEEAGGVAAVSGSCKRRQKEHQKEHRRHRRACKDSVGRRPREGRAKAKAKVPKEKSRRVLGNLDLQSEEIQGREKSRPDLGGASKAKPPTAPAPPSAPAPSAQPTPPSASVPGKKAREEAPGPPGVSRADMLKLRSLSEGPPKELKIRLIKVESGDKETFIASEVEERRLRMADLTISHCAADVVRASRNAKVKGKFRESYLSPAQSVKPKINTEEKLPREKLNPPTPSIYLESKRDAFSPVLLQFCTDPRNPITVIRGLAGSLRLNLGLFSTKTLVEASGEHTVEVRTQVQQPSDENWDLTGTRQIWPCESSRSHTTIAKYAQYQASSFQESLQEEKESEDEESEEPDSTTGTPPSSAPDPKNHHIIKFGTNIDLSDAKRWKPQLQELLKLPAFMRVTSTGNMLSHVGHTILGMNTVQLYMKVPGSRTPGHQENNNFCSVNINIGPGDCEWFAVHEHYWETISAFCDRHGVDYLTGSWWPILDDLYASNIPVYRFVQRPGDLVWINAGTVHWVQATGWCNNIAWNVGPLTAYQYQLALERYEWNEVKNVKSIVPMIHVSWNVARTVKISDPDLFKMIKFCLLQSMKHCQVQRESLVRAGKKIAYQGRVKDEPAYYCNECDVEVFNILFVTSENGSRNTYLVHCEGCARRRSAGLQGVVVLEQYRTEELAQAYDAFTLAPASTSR

On to `Cc1cc(Cl)ccc1COc1ccnn1-c1cc(C(=O)O)ccn1` [Example 11], for which the IC50 on KDM6B was determined as 0.28 µM. In addition, the EC50 was found to be 5.77 µM with HBV (setting [1]) and 4.05 µM with HBV (setting [2]).

Consider `O=C(O)c1ccncc1Nc1nn(CCN2CCC(F)(F)CC2)c2ccc(F)cc12` [Example 13], for which, on KDM6B, the IC50 was found to be 0.4 µM. Further, the results for the EC50 in the experiment with HBV (setting [1]) and in the experiment with HBV (setting [2]) were 5.97 µM and 3.98 µM, respectively.

For `N#CNC(=O)c1ccncc1Nc1nn(CCN2CCC(F)(F)CC2)c2ccc(F)cc12` [Example 14], the EC50 in the experiment on HBV (setting [1]) was 1.09 µM; with HBV (setting [2]) it was 1.3 µM.

On to `CCN(CC)CCCCNCc1cc(C(=O)O)ccn1` [Example 18], for which, on KDM6B, the IC50 is 27 µM. In addition, the results for the EC50 with HBV (setting [1]) and in the experiment with HBV (setting [2]) were 22.6 µM and 19.5 µM, respectively.

For orientation: IC50 means the concentration needed to halve the response being measured. Usually EC50 stands for the concentration that produces a half-maximal response.
